The term EC50 denotes the concentration at which the effect is half-maximal. Low values mean an effect from little substance, high ones a need for much substance. Usually IC50 stands for the concentration needed to halve the response being measured.

Molecules are shown by their SMILES.

A short description of experiment [1]: Effective concentration for 50% protection of HIV-induced cytopathogenicity in MT-4 cells on the MTT assay.
Test in experiment [2]: as above
This is another data set of the same source.

Experiment [3] is described as follows: Inhibitory concentration determined on an HIV infection model mediated by CXCR4.

In experiment [1], `NCCCC[C@@H]1NC(=O)[C@H](CCCN=C(N)N)NC(=O)[C@H](Cc2ccc(O)cc2)NC(=O)[C@@H](NC(=O)[C@@H](NC(=O)[C@H](CCCN=C(N)N)NC(=O)[C@@H](N)CCCN=C(N)N)c2ccc3ccccc3c2)CSSC[C@@H](C(=O)N[C@@H](CCCN=C(N)N)C(=O)O)NC(=O)[C@H](CCCNC(N)=O)NC(=O)[C@H](CCCNC(N)=O)NC(=O)[C@H](Cc2ccc(O)cc2)NC(=O)[C@@H]2CCCN2C(=O)[C@@H](CCCNC(N)=O)NC1=O` [Derivative of T140 peptide] displayed an EC50 of 7.8 nM.
With `NCCCC[C@@H]1NC(=O)[C@H](CCCNC(N)=O)NC(=O)[C@H](Cc2ccc(O)cc2)NC(=O)[C@@H](NC(=O)[C@@H](NC(=O)[C@H](CCCN=C(N)N)NC(=O)[C@@H](N)CCCN=C(N)N)c2ccc3ccccc3c2)CSSC[C@@H](C(=O)N[C@@H](CCCN=C(N)N)C(N)=O)NC(=O)[C@H](CCCNC(N)=O)NC(=O)[C@H](CCCN=C(N)N)NC(=O)[C@H](Cc2ccc(O)cc2)NC(=O)[C@@H]2CCCN2C(=O)[C@@H](CCCCN)NC1=O` [Derivative of T140 peptide], the 50% effective concentration (EC50) in experiment [2] was found to be 0.6 nM. In experiment [3], this compound yielded an IC50 of 12 nM.
For `NCCCC[C@@H]1NC(=O)[C@H](CCCNC(N)=O)NC(=O)[C@H](Cc2ccc(O)cc2)NC(=O)[C@@H](NC(=O)[C@@H](NC(=O)[C@H](CCCN=C(N)N)NC(=O)[C@@H](N)CCCN=C(N)N)c2ccc3ccccc3c2)CSSC[C@@H](C(=O)N[C@@H](CCCN=C(N)N)C(=O)O)NC(=O)[C@H](CCCNC(N)=O)NC(=O)[C@H](CCCN=C(N)N)NC(=O)[C@H](Cc2ccc(O)cc2)NC(=O)[C@@H]2CCCN2C(=O)[C@@H](CCCNC(N)=O)NC1=O` [Derivative of T140 peptide] the same measures were 0.5 nM and 51 nM.
For `NCCCC[C@@H]1NC(=O)[C@H](CCCNC(N)=O)NC(=O)[C@H](Cc2ccc(O)cc2)NC(=O)[C@@H](NC(=O)[C@@H](NC(=O)[C@H](CCCN=C(N)N)NC(=O)[C@@H](N)CCCN=C(N)N)c2ccc3ccccc3c2)CSSC[C@@H](C(=O)N[C@@H](CCCN=C(N)N)C(N)=O)NC(=O)[C@H](CCCNC(N)=O)NC(=O)[C@H](CCCN=C(N)N)NC(=O)[C@H](Cc2ccc(O)cc2)NC(=O)[C@@H]2CCCN2C(=O)[C@@H](CCCNC(N)=O)NC1=O` [Derivative of T140 peptide] the same measures were 0.4 nM and 19 nM.
Compound `NCCCC[C@@H]1NC(=O)[C@H](CCCNC(N)=O)NC(=O)[C@H](Cc2ccc(O)cc2)NC(=O)[C@@H](NC(=O)[C@@H](NC(=O)[C@H](CCCN=C(N)N)NC(=O)[C@@H](N)CCCN=C(N)N)c2ccc3ccccc3c2)CSSC[C@@H](C(=O)N[C@@H](CCCN=C(N)N)C(=O)O)NC(=O)[C@H](CCCNC(N)=O)NC(=O)[C@H](CCCNC(N)=O)NC(=O)[C@H](Cc2ccc(O)cc2)NC(=O)[C@@H]2CCCN2C(=O)[C@@H](CCCCN)NC1=O` [Derivative of T140 peptide] had a 50% effective concentration (EC50) in experiment [1] of 8.9 nM.
Consider `NCCCC[C@@H]1NC(=O)[C@H](CCCNC(N)=O)NC(=O)[C@H](Cc2ccc(O)cc2)NC(=O)[C@@H](NC(=O)[C@@H](NC(=O)[C@H](CCCN=C(N)N)NC(=O)[C@@H](N)CCCN=C(N)N)c2ccc3ccccc3c2)CSSC[C@@H](C(=O)N[C@@H](CCCN=C(N)N)C(=O)O)NC(=O)[C@H](CCCNC(N)=O)NC(=O)[C@H](CCCN=C(N)N)NC(=O)[C@H](Cc2ccc(O)cc2)NC(=O)[C@@H]2CCCN2C(=O)[C@@H](CCCCN)NC1=O` [Derivative of T140 peptide], for which the EC50 in experiment [2] came to 2.8 nM. The same compound registered an IC50 in experiment [3] of 8 nM.
For `NCCCC[C@@H]1NC(=O)[C@H](CCCN=C(N)N)NC(=O)[C@H](Cc2ccc(O)cc2)NC(=O)[C@@H](NC(=O)[C@@H](NC(=O)[C@H](CCCN=C(N)N)NC(=O)[C@@H](N)CCCNC(N)=O)c2ccc3ccccc3c2)CSSC[C@@H](C(=O)N[C@@H](CCCN=C(N)N)C(=O)O)NC(=O)[C@H](CCCNC(N)=O)NC(=O)[C@H](CCCNC(N)=O)NC(=O)[C@H](Cc2ccc(O)cc2)NC(=O)[C@@H]2CCCN2C(=O)[C@@H](CCCCN)NC1=O` [Derivative of T140 peptide], the response in experiment [1] was half-maximal at 68 nM (EC50).
On the same count and under the same terms, the result for `NCCCC[C@@H]1NC(=O)[C@H](CCCNC(N)=O)NC(=O)[C@H](Cc2ccc(O)cc2)NC(=O)[C@@H](NC(=O)[C@@H](NC(=O)[C@H](CCCN=C(N)N)NC(=O)[C@@H](N)CCCN=C(N)N)c2ccc3ccccc3c2)CSSC[C@@H](C(=O)N[C@@H](CCCN=C(N)N)C(N)=O)NC(=O)[C@H](CCCNC(N)=O)NC(=O)[C@H](CCCNC(N)=O)NC(=O)[C@H](Cc2ccc(O)cc2)NC(=O)[C@@H]2CCCN2C(=O)[C@@H](CCCCN)NC1=O` [Derivative of T140 peptide] reads 6.8 nM.
Regarding `Nc1ccn([C@H]2CC[C@@H](CO)O2)c(=O)n1` [Dideoxycytidine], in experiment [1], the midpoint of the response, the EC50, lay at 88 nM.
The compound `NCCCC[C@@H]1NC(=O)[C@H](CCCN=C(N)N)NC(=O)[C@H](Cc2ccc(O)cc2)NC(=O)[C@@H](NC(=O)[C@@H](NC(=O)[C@H](CCCN=C(N)N)NC(=O)[C@@H](N)CCCN=C(N)N)c2ccc3ccccc3c2)CSSC[C@@H](C(=O)N[C@@H](CCCN=C(N)N)C(N)=O)NC(=O)[C@H](CCCNC(N)=O)NC(=O)[C@H](CCCN=C(N)N)NC(=O)[C@H](Cc2ccc(O)cc2)NC(=O)[C@@H]2CCCN2C(=O)[C@@H](CCCNC(N)=O)NC1=O` [Derivative of T140 peptide] came in with an EC50 in experiment [2] of 4.6 nM. Moreover, the IC50 in experiment [3] came to 24 nM.
In experiment [1], `NCCCC[C@@H]1NC(=O)[C@H](CCCN=C(N)N)NC(=O)[C@H](Cc2ccc(O)cc2)NC(=O)[C@@H](NC(=O)[C@@H](NC(=O)[C@H](CCCN=C(N)N)NC(=O)[C@@H](N)CCCN=C(N)N)c2ccc3ccccc3c2)CSSC[C@@H](C(=O)N[C@@H](CCCN=C(N)N)C(=O)O)NC(=O)[C@H](CCCNC(N)=O)NC(=O)[C@H](CCCN=C(N)N)NC(=O)[C@H](Cc2ccc(O)cc2)NC(=O)[C@@H]2CCCN2C(=O)[C@@H](CCCCN)NC1=O` [Compound T140] registered an EC50 of 3.3 nM. Further, 10 nM corresponded to half-maximal inhibition in experiment [3] (IC50).
In experiment [1], `NCCCC[C@@H]1NC(=O)[C@H](CCCNC(N)=O)NC(=O)[C@H](Cc2ccc(O)cc2)NC(=O)[C@@H](NC(=O)[C@@H](NC(=O)[C@H](CCCN=C(N)N)NC(=O)[C@@H](N)CCCNC(N)=O)c2ccc3ccccc3c2)CSSC[C@@H](C(=O)N[C@@H](CCCN=C(N)N)C(=O)O)NC(=O)[C@H](CCCNC(N)=O)NC(=O)[C@H](CCCN=C(N)N)NC(=O)[C@H](Cc2ccc(O)cc2)NC(=O)[C@@H]2CCCN2C(=O)[C@@H](CCCCN)NC1=O` [Derivative of T140 peptide] registered an EC50 of 37 nM.
With `NCCCC[C@@H]1NC(=O)[C@H](CCCNC(N)=O)NC(=O)[C@H](Cc2ccc(O)cc2)NC(=O)[C@@H](NC(=O)[C@H](Cc2ccc3ccccc3c2)NC(=O)[C@H](CCCN=C(N)N)NC(=O)[C@@H](N)CCCNC(N)=O)CSSC[C@@H](C(=O)N[C@@H](CCCN=C(N)N)C(N)=O)NC(=O)[C@H](CCCNC(N)=O)NC(=O)[C@H](CCCN=C(N)N)NC(=O)[C@H](Cc2ccc(O)cc2)NC(=O)[C@@H]2CCCN2C(=O)[C@@H](CCCCN)NC1=O` [Derivative of T140 peptide], in experiment [1], the EC50 worked out at 6.6 nM.
The same measure, in the same setting: with `NCCCC[C@@H]1NC(=O)[C@H](CCCN=C(N)N)NC(=O)[C@H](Cc2ccc(O)cc2)NC(=O)[C@@H](NC(=O)[C@@H](NC(=O)[C@H](CCCN=C(N)N)NC(=O)[C@@H](N)CCCNC(N)=O)c2ccc3ccccc3c2)CSSC[C@@H](C(=O)N[C@@H](CCCN=C(N)N)C(N)=O)NC(=O)[C@H](CCCNC(N)=O)NC(=O)[C@H](CCCN=C(N)N)NC(=O)[C@H](Cc2ccc(O)cc2)NC(=O)[C@@H]2CCCN2C(=O)[C@@H](CCCNC(N)=O)NC1=O` [Derivative of T140 peptide] the figure was 1.2 nM; with `NCCCC[C@@H]1NC(=O)[C@H](CCCN=C(N)N)NC(=O)[C@H](Cc2ccc(O)cc2)NC(=O)[C@@H](NC(=O)[C@@H](NC(=O)[C@H](CCCN=C(N)N)NC(=O)[C@@H](N)CCCNC(N)=O)c2ccc3ccccc3c2)CSSC[C@@H](C(=O)N[C@@H](CCCN=C(N)N)C(=O)O)NC(=O)[C@H](CCCNC(N)=O)NC(=O)[C@H](CCCN=C(N)N)NC(=O)[C@H](Cc2ccc(O)cc2)NC(=O)[C@@H]2CCCN2C(=O)[C@@H](CCCNC(N)=O)NC1=O` [Derivative of T140 peptide], 36 nM; with `NCCCC[C@@H]1NC(=O)[C@H](CCCN=C(N)N)NC(=O)[C@H](Cc2ccc(O)cc2)NC(=O)[C@@H](NC(=O)[C@@H](NC(=O)[C@H](CCCN=C(N)N)NC(=O)[C@@H](N)CCCN=C(N)N)c2ccc3ccccc3c2)CSSC[C@@H](C(=O)N[C@@H](CCCN=C(N)N)C(N)=O)NC(=O)[C@H](CCCNC(N)=O)NC(=O)[C@H](CCCNC(N)=O)NC(=O)[C@H](Cc2ccc(O)cc2)NC(=O)[C@@H]2CCCN2C(=O)[C@@H](CCCNC(N)=O)NC1=O` [Derivative of T140 peptide], 2.7 nM.
In turn, `NCCCC[C@@H]1NC(=O)[C@H](CCCN=C(N)N)NC(=O)[C@H](Cc2ccc(O)cc2)NC(=O)[C@@H](NC(=O)[C@@H](NC(=O)[C@H](CCCN=C(N)N)NC(=O)[C@@H](N)CCCN=C(N)N)c2ccc3ccccc3c2)CSSC[C@@H](C(=O)N[C@@H](CCCN=C(N)N)C(N)=O)NC(=O)[C@H](CCCNC(N)=O)NC(=O)[C@H](CCCN=C(N)N)NC(=O)[C@H](Cc2ccc(O)cc2)NC(=O)[C@@H]2CCCN2C(=O)[C@@H](CCCCN)NC1=O` [Derivative of T140 peptide] displayed an EC50 in experiment [1] of 72 nM.
The same measure, in the same setting: the result for `NCCCC[C@@H]1NC(=O)[C@H](CCCN=C(N)N)NC(=O)[C@H](Cc2ccc(O)cc2)NC(=O)[C@@H](NC(=O)[C@@H](NC(=O)[C@H](CCCN=C(N)N)NC(=O)[C@@H](N)CCCNC(N)=O)c2ccc3ccccc3c2)CSSC[C@@H](C(=O)N[C@@H](CCCN=C(N)N)C(N)=O)NC(=O)[C@H](CCCNC(N)=O)NC(=O)[C@H](CCCNC(N)=O)NC(=O)[C@H](Cc2ccc(O)cc2)NC(=O)[C@@H]2CCCN2C(=O)[C@@H](CCCCN)NC1=O` [Derivative of T140 peptide] reads 40 nM.
Regarding `NCCCC[C@@H]1NC(=O)[C@H](CCCN=C(N)N)NC(=O)[C@H](Cc2ccc(O)cc2)NC(=O)[C@@H](NC(=O)[C@@H](NC(=O)[C@H](CCCN=C(N)N)NC(=O)[C@@H](N)CCCN=C(N)N)c2ccc3ccccc3c2)CSSC[C@@H](C(=O)N[C@@H](CCCN=C(N)N)C(=O)O)NC(=O)[C@H](CCCNC(N)=O)NC(=O)[C@H](CCCN=C(N)N)NC(=O)[C@H](Cc2ccc(O)cc2)NC(=O)[C@@H]2CCCN2C(=O)[C@@H](CCCNC(N)=O)NC1=O` [T140], the EC50 in experiment [2] is 4 nM. Further, in experiment [3], the IC50 was determined as 23 nM.

Values taken from BindingDB's records for doi:10.1016/s0960-894x(01)00323-7 (Kyoto University, 2001).
